Experimental data taken from patent publication US12110286B2, “Benzimidazolone derived inhibitors of BCL6” (Cancer Research Technology Limited, priority 2017, dated 2024).

Target: Trx-6×His-BCL6 (human BCL6 BTB domain covering amino-acid sequence 5-129) (Homo sapiens (Human), UniProt P41182)
Assay: HTRF in vitro assay (BCL6 / BCOR-AF633 peptide)
Assay type: binding
Settings: further generated data; 1 nM Trx-6×His-BCL6, 300 nM BCOR-AF633 peptide, 0.5 nM anti-6×His-Terbium cryptate
Procedure: The % inhibition at each concentration was calculated by normalising FRET ratio to the appropriate high (DMSO with all reagents) and low (DMSO without BCL6) controls.

Row | SMILES | HTRF pIC50
1 | C[C@@H]1CN(c2ncc(Cl)c(Nc3ccc4c(c3)n(CCC(C)(C)O)c(=O)n4C)n2)C[C@H](C)O1 [Example 20j] | 6.80
2 | Cn1c(=O)n(CCC(C)(C)O)c2cc(Nc3nc(N4CC(C(F)(F)F)OC(C)(C)C4)ncc3Cl)ccc21 (centres unmarked) [Example 20k] | 6.11
3 | CCC1(Cn2c(=O)n(C)c3ccc(Nc4nc(N5C[C@@H](C)O[C@@H](C)C5)ncc4Cl)cc32)CN(C)C(=O)O1 (some centres unmarked) [Example 20l] | 6.39
4 | CCC1(Cn2c(=O)n(C)c3ccc(Nc4nc(-n5ccc(C(F)(F)F)n5)ncc4Cl)cc32)CN(C)C(=O)O1 (centres unmarked) [Example 20m] | 5.97
5 | CCC1(Cn2c(=O)n(C)c3ccc(Nc4nc(N5C[C@@H](C)O[C@@H](C)C5)ncc4Cl)cc32)CNC(=O)O1 (some centres unmarked) [Example 20n] | 6.42
6 | CCC1(Cn2c(=O)n(C)c3ccc(Nc4nc(-n5ccc(C(F)(F)F)n5)ncc4Cl)cc32)CNC(=O)O1 (centres unmarked) [Example 20o] | 6.22
7 | C[C@@H]1CN(c2ncc(Cl)c(Nc3cc4c(cc3F)n(C)c(=O)n4CCC(C)(C)O)n2)C[C@H](C)O1 [Example 20p] | 6.44
8 | C[C@@H]1C[C@H](C)CN(c2ncc(Cl)c(Nc3cc4c(cc3F)n(C)c(=O)n4CCC(C)(C)O)n2)C1.O=CO [Example 20q] | 5.87
9 | Cn1c(=O)n(CCC(C)(C)O)c2cc(Nc3nc(-n4ccc(C(F)(F)F)n4)ncc3Cl)c(F)cc21 [Example 20r] | 6.53
10 | Cn1c(=O)n(CCC(C)(C)O)c2cc(Nc3nc(-n4cc(C(F)(F)F)cn4)ncc3Cl)ccc21 [Example 20s] | 6.26
11 | Cn1c(=O)n(CCC(C)(C)O)c2cc(Nc3nc(N4CCOCC4)ncc3Cl)ccc21 [Example 20t] | 6.51
12 | CSc1ncc(Cl)c(Nc2ccc3c(c2)n(CCC(C)(C)O)c(=O)n3C)n1 [Example 22a, 5-((5-chloro-2-(methylthio)pyrimidin-4-yl)amino)-3-(3-hydroxy-3-methylbutyl)-1-methyl-1,3-dihydro-2H-benzo[d]imidazol-2-one] | 6.19
13 | Cn1c(=O)n(CCC(C)(C)O)c2cc(Nc3cc(Br)ncc3Cl)ccc21 [Example 22b, 5-((2-bromo-5-chloropyridin-4-yl)amino)-3-(3-hydroxy-3-methylbutyl)-1-methyl-1,3-dihydro-2H-benzo[d]imidazol-2-one] | 5.65
14 | CCC1(Cn2c(=O)n(C)c3ccc(Nc4ccnc(Cl)c4C#N)cc32)CNC(=O)O1 (centres unmarked) [Example 22c] | 5.76
15 | Cn1c(=O)n(CCC(C)(C)O)c2cc(Nc3ncnc(Cl)c3C#N)c(F)cc21 [Example 22d] | 5.45
16 | CCC1(Cn2c(=O)n(C)c3ccc(Nc4ccnc(Cl)c4C#N)cc32)CN(C)C(=O)O1 (centres unmarked) [Example 22e] | 5.88
17 | Cn1c(=O)n(CCC(C)(C)O)c2cc(Nc3ccnc(Cl)c3C#N)c(F)cc21 [Example 22f] | 5.75
18 | CCC(C)(O)CCn1c(=O)n(C)c2ccc(Nc3nc(Cl)ncc3Cl)cc21 (centres unmarked) [Example 22g, 5-((2,5-dichloropyrimidin-4-yl)amino)-3-(3-hydroxy-3-methylpentyl)-1-methyl-1,3-dihydro-2H-benzo[d]imidazol-2-one] | 5.27
19 | Cn1c(=O)n(CCC(C)(C)O)c2cc(Nc3cc(Cl)nc4ccnn34)ccc21 [Example 22h] | 5.47
20 | Cn1c(=O)n(CCC(C)(C)O)c2cc(Nc3nc(Cl)nc(Cl)c3Cl)ccc21 [Example 22i] | 5.54
21 | Cn1c(=O)n(CCC(C)(C)O)c2cc(Nc3ncnc(Cl)c3Cl)ccc21 [Example 22l] | 5.64
22 | CC[C@]1(O)CCC[C@H]1Cn1c(=O)n(C)c2ccc(Nc3ccnc(Cl)c3C#N)cc21 [Example 22m] | 5.52
23 | Cn1c(=O)n(C[C@@H]2CCC[C@]2(C)O)c2cc(Nc3ccnc(Cl)c3C#N)ccc21 [Example 22n] | 5.90
24 | Cc1nc(C)c(-c2ncc(Cl)c(Nc3ccc4c(c3)n(CCC(C)(C)O)c(=O)n4C)n2)s1 [Example 23c] | 5.99

Second part, the compound after the results:

Row | HTRF pIC50 | SMILES
25 | 6.35 | Cn1ccc(-c2ncc(Cl)c(Nc3ccc4c(c3)n(CCC(C)(C)O)c(=O)n4C)n2)n1 [Example 23a, 5-((5-chloro-2-(1-methyl-1H-pyrazol-3-yl)pyrimidin-4-yl)amino)-3-(3-hydroxy-3-methylbutyl)-1-methyl-1,3-dihydro-2H-benzo[d]imidazol-2-one]
26 | 6.05 | Cc1cc(-c2ncc(Cl)c(Nc3ccc4c(c3)n(CCC(C)(C)O)c(=O)n4C)n2)n(C)n1 [Example 23b]
27 | 5.62 | Cn1c(=O)n(CCC(C)(C)O)c2cc(Nc3nc(-c4cccs4)ncc3Cl)ccc21 [Example 23d]
28 | 6.33 | Cn1ccnc1-c1ncc(Cl)c(Nc2ccc3c(c2)n(CCC(C)(C)O)c(=O)n3C)n1 [Example 24a, 5-((5-chloro-2-(1-methyl-1H-imidazol-2-yl)pyrimidin-4-yl)amino)-3-(3-hydroxy-3-methylbutyl)-1-methyl-1,3-dihydro-2H-benzo[d]imidazol-2-one:formic acid (1:1)]
29 | 5.58 | Cn1c(=O)n(CC2COCCN2CC(F)(F)F)c2cc(Nc3ccnc(Cl)c3C#N)ccc21 (centres unmarked) [Example 25a, 2-chloro-4-((1-methyl-2-oxo-3-((4-(2,2,2-trifluoroethyl)morpholin-3-yl)methyl)-2,3-dihydro-1H-benzo[d]imidazol-5-yl)amino)nicotinonitrile]
30 | 5.34 | CCC(Cn1c(=O)n(C)c2ccc(Nc3ccnc(Cl)c3C#N)cc21)N(C)C (centres unmarked) [Example 25b, 2-chloro-4-((3-(2-(dimethylamino)butyl)-1-methyl-2-oxo-2,3-dihydro-1H-benzo[d]imidazol-5-yl)amino)nicotinonitrile: formic acid (1:1)]
31 | 5.34 | CCN1CCC[C@H]1Cn1c(=O)n(C)c2ccc(Nc3ccnc(Cl)c3C#N)cc21 [Example 25c, (S)-2-chloro-4-((3-((1-ethylpyrrolidin-2-yl)methyl)-1-methyl-2-oxo-2,3-dihydro-1H-benzo[d]imidazol-5-yl)amino)nicotinonitrile]
32 | 5.37 | Cn1c(=O)n(CC2CCCCN2CC(F)(F)F)c2cc(Nc3ccnc(Cl)c3C#N)ccc21 (centres unmarked) [Example 25e, 2-chloro-4-((1-methyl-2-oxo-3-((1-(2,2,2-trifluoroethyl)piperidin-2-yl)methyl)-2,3-dihydro-1H-benzo[d]imidazol-5-yl)amino)nicotinonitrile]
33 | 5.73 | Cn1c(=O)n(C[C@@H]2CCCN2CCF)c2cc(Nc3ccnc(Cl)c3C#N)ccc21 [Example 25f, (S)-2-chloro-4-((3-((1-(2-fluoroethyl)pyrrolidin-2-yl)methyl)-1-methyl-2-oxo-2,3-dihydro-1H-benzo[d]imidazol-5-yl)amino)nicotinonitrile: formic acid (1:1)]
34 | 5.34 | Cn1c(=O)n(C[C@@H]2CCCN2CCO)c2cc(Nc3ccnc(Cl)c3C#N)ccc21 [Example 25g, (S)-2-chloro-4-((3-((1-(2-hydroxyethyl)pyrrolidin-2-yl)methyl)-1-methyl-2-oxo-2,3-dihydro-1H-benzo[d]imidazol-5-yl)amino)nicotinonitrile: formic acid (1:1)]
35 | 5.71 | Cn1c(=O)n(C[C@@H]2CCCN2CC(F)F)c2cc(Nc3ccnc(Cl)c3C#N)ccc21 [Example 25i, (S)-2-chloro-4-((3-((1-(2,2-difluoroethyl)pyrrolidin-2-yl)methyl)-1-methyl-2-oxo-2,3-dihydro-1H-benzo[d]imidazol-5-yl)amino)nicotinonitrile]
